Data published in US20220106304A1, “Transcription Factor BRN2 Inhibitory Compounds as Therapeutics and Methods for Their Use” (The University of British Columbia, priority 2018, published 2022).

target: T1, BRN2 (Homo sapiens, UniProt P20265); assay: cell-based; conditions: read-out: % BRN2 Inhibition (10 μM), 10 μM compound, 24 hours, 42D^ENZR cells stably expressing BRN2-luciferase reporter; negative = activation
T1 sequence (P20265 1-443): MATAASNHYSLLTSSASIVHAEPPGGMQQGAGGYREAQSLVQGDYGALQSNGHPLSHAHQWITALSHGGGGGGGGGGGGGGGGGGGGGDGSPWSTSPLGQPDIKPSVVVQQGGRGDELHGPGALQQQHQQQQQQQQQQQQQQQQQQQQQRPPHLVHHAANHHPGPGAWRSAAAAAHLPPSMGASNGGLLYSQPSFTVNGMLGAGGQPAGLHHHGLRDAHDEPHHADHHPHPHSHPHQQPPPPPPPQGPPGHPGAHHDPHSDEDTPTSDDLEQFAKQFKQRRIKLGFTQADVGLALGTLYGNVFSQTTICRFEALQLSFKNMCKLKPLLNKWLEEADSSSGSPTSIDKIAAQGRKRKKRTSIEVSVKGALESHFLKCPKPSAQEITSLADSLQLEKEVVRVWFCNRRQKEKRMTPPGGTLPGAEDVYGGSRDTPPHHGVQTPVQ
From the text: Decreased expression of luciferase protein is validated via western blot to confirm downregulation and avoid false positive molecules that inhibit luciferase protein activity and not BRN2-drive luciferase expression. Molecules are prioritized by their inhibition potency to measure direct interaction with BRN2 in Step 2.
In TABLES 1 and 2, when a single value is mentioned in columns Met Stab % and T½, it refers to compound's stability in MLM and when two values are given they represent HLM/MLM. There is a distinction in TABLES 1 and 2 difference between “Active” and “Specific” or “Specificity”. Compounds are first tested to quantify inhibition of BRN2 transcriptional activity in a luciferase assay to determine “Activity” at […] and 30 μM concentrations. […] Where data is not available “na” is inserted. Where data has yet to be calculated the notation “nc” is used.

Structure (SMILES) | inhibition at 10 µM
c1ccc2c(c1)CCC2c1cnn(-c2nc3ccccc3s2)c1 (stereo not drawn) [VPC-7-43] | 2%
c1ccc2c(c1)CCC2c1ccc(-c2nc3ccccc3s2)o1 (stereo not drawn) [VPC-7-44] | 83%
Cn1c(-c2ccc(-c3ccccc3F)o2)nc2c(F)cccc21 [VPC-18-31, 4-Fluoro-2-(5-(2-fluorophenyl)furan-2-yl)-1-methyl-1H-benzo[d]imidazole] | 67.9%
O=[N+]([O-])c1ccc2nc(-c3ccc(-c4ccccc4F)o3)[nH]c2c1 [VPC-18-32, 2-(5-(2-Fluorophenyl)furan-2-yl)-6-nitro-1H-benzo[d]imidazole] | 83.7%
c1ccc(-c2nc(-c3cc4ccccc4o3)cs2)cc1 [VPC-18-33, 4-(Benzofuran-2-yl)-2-phenylthiazole] | 22.4%
COc1ccccc1-c1ccc(-c2nc3ccccc3n2C)o1 [VPC-18-35, 2-(5-(2-Methoxyphenyl)furan-2-yl)-1-methyl-1H-benzo[d]imidazole] | 51.6%
CCn1c(-c2ccc(-c3ccccc3)o2)nc2ccccc21 [VPC-18-36, 1-Ethyl-2-(5-phenylfuran-2-yl)-1H-benzo[d]imidazole] | 57.5%
Cn1c(-c2ccc(-c3ccc(F)cc3F)o2)nc2ccccc21 [VPC-18-41, 2-(5-(2,4-Difluorophenyl)furan-2-yl)-1-methyl-1H-benzo[d]imidazole] | 57.5%
Cn1c(-c2ccc(-c3ccccc3)o2)nc2ccc(Cl)cc21 [VPC-18-42, 6-Chloro-1-methyl-2-(5-phenylfuran-2-yl)-1H-benzo[d]imidazole] | 77.3%
Cn1c(-c2csc(-c3ccccc3F)n2)nc2ccc(F)cc21 [VPC-18-45, 4-(6-Fluoro-1-methyl-1H-benzo[d]imidazol-2-yl)-2-(2-fluorophenyl)thiazole] | 7.53%

same assay, conditions: read-out: % BRN2 Inhibition (30 μM), 30 μM compound, 24 hours, 42D^ENZR cells stably expressing BRN2-luciferase reporter; negative = activation

Structure (SMILES) | inhibition at 30 µM
c1ccc2c(c1)CCC2c1cnn(-c2nc3ccccc3s2)c1 (stereo not drawn) [VPC-7-43] | 41%
c1ccc2c(c1)CCC2c1ccc(-c2nc3ccccc3s2)o1 (stereo not drawn) [VPC-7-44] | 93%
Cn1c(-c2ccc(-c3ccccc3F)o2)nc2c(F)cccc21 [VPC-18-31, 4-Fluoro-2-(5-(2-fluorophenyl)furan-2-yl)-1-methyl-1H-benzo[d]imidazole] | 77.8%
O=[N+]([O-])c1ccc2nc(-c3ccc(-c4ccccc4F)o3)[nH]c2c1 [VPC-18-32, 2-(5-(2-Fluorophenyl)furan-2-yl)-6-nitro-1H-benzo[d]imidazole] | 95.5%
c1ccc(-c2nc(-c3cc4ccccc4o3)cs2)cc1 [VPC-18-33, 4-(Benzofuran-2-yl)-2-phenylthiazole] | 57.2%
COc1ccccc1-c1ccc(-c2nc3ccccc3n2C)o1 [VPC-18-35, 2-(5-(2-Methoxyphenyl)furan-2-yl)-1-methyl-1H-benzo[d]imidazole] | 95.8%
CCn1c(-c2ccc(-c3ccccc3)o2)nc2ccccc21 [VPC-18-36, 1-Ethyl-2-(5-phenylfuran-2-yl)-1H-benzo[d]imidazole] | 93.4%
Cn1c(-c2ccc(-c3ccc(F)cc3F)o2)nc2ccccc21 [VPC-18-41, 2-(5-(2,4-Difluorophenyl)furan-2-yl)-1-methyl-1H-benzo[d]imidazole] | 91.1%
Cn1c(-c2ccc(-c3ccccc3)o2)nc2ccc(Cl)cc21 [VPC-18-42, 6-Chloro-1-methyl-2-(5-phenylfuran-2-yl)-1H-benzo[d]imidazole] | 76.8%
Cn1c(-c2csc(-c3ccccc3F)n2)nc2ccc(F)cc21 [VPC-18-45, 4-(6-Fluoro-1-methyl-1H-benzo[d]imidazol-2-yl)-2-(2-fluorophenyl)thiazole] | 47.2%

test system: not listed separately; assay: Liver microsome metabolic stability, HLM; type: in vitro ADME; conditions: HLM (first of two values), percent remaining at 60 min, 1 μM compound, 0.25 mg/mL protein, 1 mM NADPH
Protocol: (§1) Potassium phosphate buffer (Kphos) was prepared by adding 0.647 g potassium phosphate monobasic (KH2PO4) and 3.527 g potassium phosphate dibasic ([…]) to 400 mL of Milli-Q water. pH of the buffer was adjusted to 7.4 and volume was made up to 500 mL.
(§2) Microsomes (20 mg/mL) were diluted in KH2PO4 buffer to prepare a concentration of 0.357 mg/mL.
(§3) Stock solutions of BRN2 inhibitors were prepared in DMSO at a concentration of 1 mM
(§4) A stock solution of 3.33 mM NADPH (3.33×) was prepared by dissolving appropriate amount of NADPH in KH2PO4 buffer.
(§5) Total Incubation volume: 100 μL
(§6) Compound concentration: 1 μM
(§7) Protein Concentration: 0.25 mg/mL
(§8) An 1120 μL aliquot of Kphos buffer (50 mM, pH 7.4) containing liver microsomes (0.357 mg/mL) were added to individual 2 mL tubes (final concentration 0.25 mg/mL). Test compounds (1 mM) and positive controls were directly spiked into respective tubes to prepare a concentration of 1.428 μM (final concentration 1 μM). From the above mix, 70 μL was added to individual wells of 96 well reaction plates and pre-incubated in a 37° C. water bath for 5 min. All the reactions were initiated by adding 30 μL of 3.33 mM NADPH (final concentration 1 mM). Reactions without NADPH and buffer controls (minus NADPH) at 0 min and 60 min were also incubated to rule out non-NADPH metabolism or chemical instability in the incubation buffer. All reactions were terminated using 100 μL of ice-cold acetonitrile containing internal standard at 0, 5, 15, 30 and 60 min. The plates were centrifuged at 4000 RPM for 15 min and 100 μL aliquots were submitted for analysis by LC-MS/MS.
(§9) Samples were monitored for parent compounds disappearance in MRM mode using LC-MS/MS.
(§10) The percent remaining of test compounds and positive control in each sample was determined by considering peak area ratio in the 0 minute sample as 100%. The Half-life of compounds in microsomes is calculated by formula:
(§11) Half-life (t½) (min)=0.693/k, where k is gradient of line determined from plot of peak area ratio (compound peak area/internal standard peak area) against time.
(§12) In vitro intrinsic clearance (CL'int) (units in mL/min/kg) was calculated using the formula.
(§13) [formula] • For liver microsomes, scaling factor used was 45 mg microsomal protein per gm liver. • Indicates liver weight (gm) which varies species wise. For mice the liver weights are 90 gm.
(§14) Where data is not available “na” is inserted.

Structure (SMILES) | Met Stab % (60 mins HLM/MLM)
c1ccc2c(c1)CCC2c1cnn(-c2nc3ccccc3s2)c1 (stereo not drawn) [VPC-7-43] | 20%
c1ccc2c(c1)CCC2c1ccc(-c2nc3ccccc3s2)o1 (stereo not drawn) [VPC-7-44] | 62%
Cn1c(-c2ccc(-c3ccccc3F)o2)nc2c(F)cccc21 [VPC-18-31, 4-Fluoro-2-(5-(2-fluorophenyl)furan-2-yl)-1-methyl-1H-benzo[d]imidazole] | 17%
O=[N+]([O-])c1ccc2nc(-c3ccc(-c4ccccc4F)o3)[nH]c2c1 [VPC-18-32, 2-(5-(2-Fluorophenyl)furan-2-yl)-6-nitro-1H-benzo[d]imidazole] | 20%
c1ccc(-c2nc(-c3cc4ccccc4o3)cs2)cc1 [VPC-18-33, 4-(Benzofuran-2-yl)-2-phenylthiazole] | 30%
COc1ccccc1-c1ccc(-c2nc3ccccc3n2C)o1 [VPC-18-35, 2-(5-(2-Methoxyphenyl)furan-2-yl)-1-methyl-1H-benzo[d]imidazole] | 4%
CCn1c(-c2ccc(-c3ccccc3)o2)nc2ccccc21 [VPC-18-36, 1-Ethyl-2-(5-phenylfuran-2-yl)-1H-benzo[d]imidazole] | 15%
Cn1c(-c2ccc(-c3ccc(F)cc3F)o2)nc2ccccc21 [VPC-18-41, 2-(5-(2,4-Difluorophenyl)furan-2-yl)-1-methyl-1H-benzo[d]imidazole] | 0/0%
Cn1c(-c2ccc(-c3ccccc3)o2)nc2ccc(Cl)cc21 [VPC-18-42, 6-Chloro-1-methyl-2-(5-phenylfuran-2-yl)-1H-benzo[d]imidazole] | 15%
Cn1c(-c2csc(-c3ccccc3F)n2)nc2ccc(F)cc21 [VPC-18-45, 4-(6-Fluoro-1-methyl-1H-benzo[d]imidazol-2-yl)-2-(2-fluorophenyl)thiazole] | 35%

same assay, conditions: human, liver microsomes, pH 7.4; HLM (first of two values), 1 μM compound, 0.25 mg/mL protein; read-out: T1/2 in (mins HLM/MLM)

Structure (SMILES) | half-life at 1 µM
c1ccc2c(c1)CCC2c1cnn(-c2nc3ccccc3s2)c1 (stereo not drawn) [VPC-7-43] | 27 min
c1ccc2c(c1)CCC2c1ccc(-c2nc3ccccc3s2)o1 (stereo not drawn) [VPC-7-44] | > 60 min
Cn1c(-c2ccc(-c3ccccc3F)o2)nc2c(F)cccc21 [VPC-18-31, 4-Fluoro-2-(5-(2-fluorophenyl)furan-2-yl)-1-methyl-1H-benzo[d]imidazole] | 2 min
O=[N+]([O-])c1ccc2nc(-c3ccc(-c4ccccc4F)o3)[nH]c2c1 [VPC-18-32, 2-(5-(2-Fluorophenyl)furan-2-yl)-6-nitro-1H-benzo[d]imidazole] | 26 min
c1ccc(-c2nc(-c3cc4ccccc4o3)cs2)cc1 [VPC-18-33, 4-(Benzofuran-2-yl)-2-phenylthiazole] | 36 min
COc1ccccc1-c1ccc(-c2nc3ccccc3n2C)o1 [VPC-18-35, 2-(5-(2-Methoxyphenyl)furan-2-yl)-1-methyl-1H-benzo[d]imidazole] | 13 min
CCn1c(-c2ccc(-c3ccccc3)o2)nc2ccccc21 [VPC-18-36, 1-Ethyl-2-(5-phenylfuran-2-yl)-1H-benzo[d]imidazole] | 22 min
Cn1c(-c2ccc(-c3ccccc3)o2)nc2ccc(Cl)cc21 [VPC-18-42, 6-Chloro-1-methyl-2-(5-phenylfuran-2-yl)-1H-benzo[d]imidazole] | 23 min
Cn1c(-c2csc(-c3ccccc3F)n2)nc2ccc(F)cc21 [VPC-18-45, 4-(6-Fluoro-1-methyl-1H-benzo[d]imidazol-2-yl)-2-(2-fluorophenyl)thiazole] | 42 min

test system: not listed separately; assay: Liver microsome metabolic stability, MLM; type: in vitro ADME; conditions: MLM (single value or second of two), percent remaining at 60 min, 1 μM compound, 0.25 mg/mL protein, 1 mM NADPH
Protocol: as §1, §2, §3, §4, §5, §6, §7, §8, §9, §10, §11, §12, §13, §14

Structure (SMILES) | Met Stab % (60 mins HLM/MLM)
c1ccc2c(c1)CCC2c1cnn(-c2nc3ccccc3s2)c1 (stereo not drawn) [VPC-7-43] | 5%
c1ccc2c(c1)CCC2c1ccc(-c2nc3ccccc3s2)o1 (stereo not drawn) [VPC-7-44] | 44%
Cn1c(-c2ccc(-c3ccccc3F)o2)nc2c(F)cccc21 [VPC-18-31, 4-Fluoro-2-(5-(2-fluorophenyl)furan-2-yl)-1-methyl-1H-benzo[d]imidazole] | 0%
O=[N+]([O-])c1ccc2nc(-c3ccc(-c4ccccc4F)o3)[nH]c2c1 [VPC-18-32, 2-(5-(2-Fluorophenyl)furan-2-yl)-6-nitro-1H-benzo[d]imidazole] | 4%
c1ccc(-c2nc(-c3cc4ccccc4o3)cs2)cc1 [VPC-18-33, 4-(Benzofuran-2-yl)-2-phenylthiazole] | 1%
COc1ccccc1-c1ccc(-c2nc3ccccc3n2C)o1 [VPC-18-35, 2-(5-(2-Methoxyphenyl)furan-2-yl)-1-methyl-1H-benzo[d]imidazole] | 0%
CCn1c(-c2ccc(-c3ccccc3)o2)nc2ccccc21 [VPC-18-36, 1-Ethyl-2-(5-phenylfuran-2-yl)-1H-benzo[d]imidazole] | 2%
Cn1c(-c2ccc(-c3ccc(F)cc3F)o2)nc2ccccc21 [VPC-18-41, 2-(5-(2,4-Difluorophenyl)furan-2-yl)-1-methyl-1H-benzo[d]imidazole] | 0/0%
Cn1c(-c2ccc(-c3ccccc3)o2)nc2ccc(Cl)cc21 [VPC-18-42, 6-Chloro-1-methyl-2-(5-phenylfuran-2-yl)-1H-benzo[d]imidazole] | 1%
Cn1c(-c2csc(-c3ccccc3F)n2)nc2ccc(F)cc21 [VPC-18-45, 4-(6-Fluoro-1-methyl-1H-benzo[d]imidazol-2-yl)-2-(2-fluorophenyl)thiazole] | 22%

same assay, conditions: mouse, liver microsomes, pH 7.4; MLM (single value or second of two), 1 μM compound, 0.25 mg/mL protein; read-out: T1/2 in (mins HLM/MLM)

Structure (SMILES) | half-life at 1 µM
c1ccc2c(c1)CCC2c1cnn(-c2nc3ccccc3s2)c1 (stereo not drawn) [VPC-7-43] | 14 min
c1ccc2c(c1)CCC2c1ccc(-c2nc3ccccc3s2)o1 (stereo not drawn) [VPC-7-44] | 52 min
O=[N+]([O-])c1ccc2nc(-c3ccc(-c4ccccc4F)o3)[nH]c2c1 [VPC-18-32, 2-(5-(2-Fluorophenyl)furan-2-yl)-6-nitro-1H-benzo[d]imidazole] | 12 min
c1ccc(-c2nc(-c3cc4ccccc4o3)cs2)cc1 [VPC-18-33, 4-(Benzofuran-2-yl)-2-phenylthiazole] | 10 min
COc1ccccc1-c1ccc(-c2nc3ccccc3n2C)o1 [VPC-18-35, 2-(5-(2-Methoxyphenyl)furan-2-yl)-1-methyl-1H-benzo[d]imidazole] | 5 min
CCn1c(-c2ccc(-c3ccccc3)o2)nc2ccccc21 [VPC-18-36, 1-Ethyl-2-(5-phenylfuran-2-yl)-1H-benzo[d]imidazole] | 13 min
Cn1c(-c2ccc(-c3ccccc3)o2)nc2ccc(Cl)cc21 [VPC-18-42, 6-Chloro-1-methyl-2-(5-phenylfuran-2-yl)-1H-benzo[d]imidazole] | 11 min
Cn1c(-c2csc(-c3ccccc3F)n2)nc2ccc(F)cc21 [VPC-18-45, 4-(6-Fluoro-1-methyl-1H-benzo[d]imidazol-2-yl)-2-(2-fluorophenyl)thiazole] | 32 min
